Source: paper PMC5218480 (PLoS ONE, 2017)

Tested on: MV-4-11 cells
Test: Gene expression microarray analysis (Affymetrix PrimeView) and GSEA
Assay type: cell-based, human
Parameters: RFU PODN (11730768_x_at) / Fold change /veh PODN (11730768_x_at) / RFU LINC00158 (11744669_a_at) / Fold change /veh LINC00158 (11744669_a_at) / RFU DUSP10 (11751237_a_at) / Fold change /veh DUSP10 (11751237_a_at) / RFU ID3 (11757404_x_at) / Fold change /veh ID3 (11757404_x_at) / RFU PLEKHG5 (11737974_s_at) / Fold change /veh PLEKHG5 (11737974_s_at) / RFU LRRC4B (11730491_at) / Fold change /veh LRRC4B (11730491_at) / RFU GIMAP4 (11747438_a_at) / Fold change /veh GIMAP4 (11747438_a_at) / RFU KRT8 (11758183_x_at) / Fold change /veh KRT8 (11758183_x_at) / RFU CNN1 (11734310_a_at) / Fold change /veh CNN1 (11734310_a_at) / RFU VPS37D (11726825_at) / Fold change /veh VPS37D (11726825_at) / RFU C10orf10 (11716522_x_at) / Fold change /veh C10orf10 (11716522_x_at) / RFU KIR2DL2 /// KIR2DL4 /// KIR2DL5A /// KIR2DL5B /// KIR2DS1 /// KIR2DS2 /// KIR2DS3 /// KIR2DS4 /// KIR3DL3 /// KIR3DL3 /// KIR3DS1 (11738374_at) / Fold change /veh KIR2DL2 /// KIR2DL4 /// KIR2DL5A /// KIR2DL5B /// KIR2DS1 /// KIR2DS2 /// KIR2DS3 /// KIR2DS4 /// KIR3DL3 /// KIR3DL3 /// KIR3DS1 (11738374_at) / RFU C1QL1 (11718748_at) / Fold change /veh C1QL1 (11718748_at) / RFU TMPRSS4 (11747572_a_at) / Fold change /veh TMPRSS4 (11747572_a_at) / RFU HAMP (11756126_x_at) / Fold change /veh HAMP (11756126_x_at) / RFU RNFT2 (11725882_a_at) / Fold change /veh RNFT2 (11725882_a_at) / RFU NR4A2 (11747474_a_at) / Fold change /veh NR4A2 (11747474_a_at) / RFU ABCC12 (11746883_a_at) / Fold change /veh ABCC12 (11746883_a_at) / RFU TMEM136 (11760407_x_at) / Fold change /veh TMEM136 (11760407_x_at) / RFU CLDN22 /// WWC2 (11732394_at) / Fold change /veh CLDN22 /// WWC2 (11732394_at) / RFU HLA-DPB1 (11760878_x_at) / Fold change /veh HLA-DPB1 (11760878_x_at) / RFU SPINT1 (11716480_a_at) / Fold change /veh SPINT1 (11716480_a_at) / RFU GAP43 (11754022_s_at) / Fold change /veh GAP43 (11754022_s_at) / RFU A4GNT (11735810_at) / Fold change /veh A4GNT (11735810_at) / RFU PRB3 (11715151_x_at) / Fold change /veh PRB3 (11715151_x_at) / RFU TUBB4B (11761932_at) / Fold change /veh TUBB4B (11761932_at) / RFU CAPN14 (11732068_a_at) / Fold change /veh CAPN14 (11732068_a_at) / RFU TMCC2 (11721928_a_at) / Fold change /veh TMCC2 (11721928_a_at) / RFU IRGQ (11745062_a_at) / Fold change /veh IRGQ (11745062_a_at) / RFU FAM174B (11720279_a_at) / Fold change /veh FAM174B (11720279_a_at) / RFU TMPRSS4 (11748680_a_at) / Fold change /veh TMPRSS4 (11748680_a_at) / RFU FAM212B (11763350_a_at) / Fold change /veh FAM212B (11763350_a_at) / RFU PLEKHG5 (11743358_a_at) / Fold change /veh PLEKHG5 (11743358_a_at) / RFU ZSCAN30 (11745921_a_at) / Fold change /veh ZSCAN30 (11745921_a_at) / RFU CMKLR1 (11741424_a_at) / Fold change /veh CMKLR1 (11741424_a_at) / RFU LOC101060620 /// MAPK8IP1 (11723275_at) / Fold change /veh LOC101060620 /// MAPK8IP1 (11723275_at) / RFU SPTSSB (11747773_x_at) / Fold change /veh SPTSSB (11747773_x_at) / RFU PRSS12 (11739890_at) / Fold change /veh PRSS12 (11739890_at) / RFU BIN1 (11741810_x_at) / Fold change /veh BIN1 (11741810_x_at) / RFU WNT11 (11732464_a_at) / Fold change /veh WNT11 (11732464_a_at) / RFU C10orf10 (11716521_a_at) / Fold change /veh C10orf10 (11716521_a_at) / RFU C5orf56 (11738089_at) / Fold change /veh C5orf56 (11738089_at) / RFU CYB561 (11721691_x_at) / Fold change /veh CYB561 (11721691_x_at) / RFU ANKRD19P (11752326_a_at) / Fold change /veh ANKRD19P (11752326_a_at) / RFU OR2T12 /// OR2T33 /// OR2T8 (11738714_s_at) / Fold change /veh OR2T12 /// OR2T33 /// OR2T8 (11738714_s_at) / RFU VCAN (11748164_a_at) / Fold change /veh VCAN (11748164_a_at) / RFU JSRP1 (11732532_at) / Fold change /veh JSRP1 (11732532_at) / RFU KRTAP10-11 (11738290_x_at) / Fold change /veh KRTAP10-11 (11738290_x_at) / RFU MYO3A (11730013_a_at) / Fold change /veh MYO3A (11730013_a_at) / RFU EBF3 (11725865_a_at) / Fold change /veh EBF3 (11725865_a_at) / RFU CAMK2N1 (11719241_x_at) / Fold change /veh CAMK2N1 (11719241_x_at) / RFU C5orf56 (11738088_a_at) / Fold change /veh C5orf56 (11738088_a_at) / RFU OLFML3 (11715873_a_at) / Fold change /veh OLFML3 (11715873_a_at) / RFU LOC100653217 /// NTM (11731650_a_at) / Fold change /veh LOC100653217 /// NTM (11731650_a_at) / RFU MAPK11 (11762145_a_at) / Fold change /veh MAPK11 (11762145_a_at) / RFU FIZ1 (11724087_x_at) / Fold change /veh FIZ1 (11724087_x_at) / RFU OASL (11726364_x_at) / Fold change /veh OASL (11726364_x_at) / RFU SOX15 (11748057_x_at) / Fold change /veh SOX15 (11748057_x_at) / RFU CD79A (11719716_a_at) / Fold change /veh CD79A (11719716_a_at) / RFU HIST1H1D (11736915_at) / Fold change /veh HIST1H1D (11736915_at) / RFU CASKIN2 (11723855_a_at) / Fold change /veh CASKIN2 (11723855_a_at) / RFU LOC730098 (11760151_x_at) / Fold change /veh LOC730098 (11760151_x_at) / RFU OR4N2 (11742367_at) / Fold change /veh OR4N2 (11742367_at) / RFU PRRT2 (11749266_a_at) / Fold change /veh PRRT2 (11749266_a_at) / RFU SNX32 (11753110_a_at) / Fold change /veh SNX32 (11753110_a_at) / RFU CDHR5 (11726645_a_at) / Fold change /veh CDHR5 (11726645_a_at) / RFU RCAN1 (11760418_a_at) / Fold change /veh RCAN1 (11760418_a_at) / RFU FAM167A (11723789_a_at) / Fold change /veh FAM167A (11723789_a_at) / RFU FAM26E (11764081_at) / Fold change /veh FAM26E (11764081_at) / RFU ISYNA1 (11749810_s_at) / Fold change /veh ISYNA1 (11749810_s_at) / RFU ACY1 (11761880_at) / Fold change /veh ACY1 (11761880_at) / RFU 11764098_at / Fold change /veh 11764098_at / RFU SAMD14 (11745864_x_at) / Fold change /veh SAMD14 (11745864_x_at) / RFU NPB (11741838_a_at) / Fold change /veh NPB (11741838_a_at) / RFU TMPRSS6 (11731388_a_at) / Fold change /veh TMPRSS6 (11731388_a_at) / RFU KRTAP10-2 (11738614_at) / Fold change /veh KRTAP10-2 (11738614_at) / RFU ARHGAP8 /// PRR5-ARHGAP8 (11727945_x_at) / Fold change /veh ARHGAP8 /// PRR5-ARHGAP8 (11727945_x_at) / RFU KRTAP5-7 /// NADSYN1 (11734609_at) / Fold change /veh KRTAP5-7 /// NADSYN1 (11734609_at) / RFU RASL12 (11751679_a_at) / Fold change /veh RASL12 (11751679_a_at) / RFU CDKN2B (11736163_a_at) / Fold change /veh CDKN2B (11736163_a_at) / RFU PRF1 (11729649_at) / Fold change /veh PRF1 (11729649_at) / RFU, ZNF638 /// ZNF638-IT1 / Fold change vs veh, ZNF638 /// ZNF638-IT1 / RFU, PANK3 / Fold change vs veh, PANK3 / RFU, SH3YL1 / Fold change vs veh, SH3YL1 / RFU, ZEB2 / Fold change vs veh, ZEB2 / RFU, NRIP1 / Fold change vs veh, NRIP1 / RFU, PTTG1IP / Fold change vs veh, PTTG1IP / RFU, CAPN2 / Fold change vs veh, CAPN2 / RFU, MED14 / Fold change vs veh, MED14 / RFU, SNORA58 / Fold change vs veh, SNORA58 / RFU, C1orf63 / Fold change vs veh, C1orf63 / RFU, LRRFIP1 / Fold change vs veh, LRRFIP1 / RFU, NDUFAF7 / Fold change vs veh, NDUFAF7 / RFU, SLC12A2 / Fold change vs veh, SLC12A2 / RFU, IBTK / Fold change vs veh, IBTK / RFU, ESF1 / Fold change vs veh, ESF1 / Fold change vs veh, TMEM50B / RFU, TAOK1 / Fold change vs veh, TAOK1 / RFU, ACBD3 / Fold change vs veh, ACBD3 / RFU, TMA16 / Fold change vs veh, TMA16 / RFU, RWDD3 / Fold change vs veh, RWDD3 / RFU, BCAT1 / Fold change vs veh, BCAT1 / RFU, EDEM3 / Fold change vs veh, EDEM3 / RFU, TMEM33 / Fold change vs veh, TMEM33 / RFU, WDR75 / Fold change vs veh, WDR75 / RFU, AHCTF1 / Fold change vs veh, AHCTF1 / RFU, TFRC / Fold change vs veh, TFRC / RFU, ZDHHC17 / Fold change vs veh, ZDHHC17 / RFU, NOM1 / Fold change vs veh, NOM1 / RFU, ARL8B / Fold change vs veh, ARL8B / RFU, ZBTB11 / Fold change vs veh, ZBTB11 / RFU, TAMM41 / Fold change vs veh, TAMM41 / RFU, KIAA1704 /// LOC100996395 / Fold change vs veh, KIAA1704 /// LOC100996395 / RFU, ING1 / Fold change vs veh, ING1 / RFU, TRMT61B / Fold change vs veh, TRMT61B / RFU, FUBP3 / Fold change vs veh, FUBP3 / RFU, TP53 / Fold change vs veh, TP53 / RFU, TNKS2 / Fold change vs veh, TNKS2 / RFU, ZFP14 / Fold change vs veh, ZFP14 / RFU, ACTR2 / Fold change vs veh, ACTR2 / RFU, PPP3R1 / Fold change vs veh, PPP3R1 / RFU, PIK3R1 / Fold change vs veh, PIK3R1 / RFU, HNRNPA1 / Fold change vs veh, HNRNPA1 / RFU, RNF170 / Fold change vs veh, RNF170 / RFU, ZNF28 / Fold change vs veh, ZNF28 / RFU, RNGTT / Fold change vs veh, RNGTT / RFU, OGT / Fold change vs veh, OGT / RFU, BRD1 / Fold change vs veh, BRD1 / RFU, MARS / Fold change vs veh, MARS / RFU, ZNF655 / Fold change vs veh, ZNF655 / RFU, FAHD1 / Fold change vs veh, FAHD1 / RFU, BDP1 / Fold change vs veh, BDP1 / RFU, LRRCC1 / Fold change vs veh, LRRCC1 / RFU, ARID1A / Fold change vs veh, ARID1A / RFU, ZNF146 / Fold change vs veh, ZNF146 / RFU, ZNF330 / Fold change vs veh, ZNF330 / RFU, GPN3 / Fold change vs veh, GPN3 / RFU, C9orf123 / Fold change vs veh, C9orf123 / RFU, N4BP2L2 / Fold change vs veh, N4BP2L2 / RFU, ARFIP1 / Fold change vs veh, ARFIP1 / RFU, FAM179B / Fold change vs veh, FAM179B / RFU, BCL10 / Fold change vs veh, BCL10 / RFU, UHRF1BP1L / Fold change vs veh, UHRF1BP1L / RFU, BET1 / Fold change vs veh, BET1 / RFU, CNOT2 / Fold change vs veh, CNOT2 / RFU, ZNF268 / Fold change vs veh, ZNF268 / Fold change vs veh, ZNF507 / RFU, DGCR2 / Fold change vs veh, DGCR2 / RFU, WDSUB1 / Fold change vs veh, WDSUB1 / Fold change vs veh, HSP90B1 /// MIR3652 / RFU, ADSS / Fold change vs veh, ADSS / RFU, GK / Fold change vs veh, GK / RFU, ZNF148 / Fold change vs veh, ZNF148 / RFU, TAF9 / Fold change vs veh, TAF9 / RFU, SLC1A5 / Fold change vs veh, SLC1A5 / RFU, SLMO2 / Fold change vs veh, SLMO2 / RFU, ABCC4 / Fold change vs veh, ABCC4 / RFU, LOC101060439 /// RAP1B / Fold change vs veh, LOC101060439 /// RAP1B / RFU, RFX7 / Fold change vs veh, RFX7 / RFU, GTPBP10 / Fold change vs veh, GTPBP10 / RFU, CNEP1R1 / Fold change vs veh, CNEP1R1 / RFU, BIVM-ERCC5 /// ERCC5 / Fold change vs veh, BIVM-ERCC5 /// ERCC5 / RFU, ILF3 / Fold change vs veh, ILF3 / RFU 11762660_at / Fold change /veh 11762660_at / RFU VCAN (11757783_s_at) / Fold change /veh VCAN (11757783_s_at) / RFU DDX43 (11728927_at) / Fold change /veh DDX43 (11728927_at) / RFU KRT8 (11758188_x_at) / Fold change /veh KRT8 (11758188_x_at) / RFU NKD1 (11759106_at) / Fold change /veh NKD1 (11759106_at) / RFU SRD5A1 (11742802_a_at) / Fold change /veh SRD5A1 (11742802_a_at) / RFU TPSAB1 /// TPSB2 (11721975_s_at) / Fold change /veh TPSAB1 /// TPSB2 (11721975_s_at) / RFU GSTM3 (11746129_a_at) / Fold change /veh GSTM3 (11746129_a_at) / RFU IL23R (11737362_x_at) / Fold change /veh IL23R (11737362_x_at) / RFU TMEM51 (11727254_a_at) / Fold change /veh TMEM51 (11727254_a_at) / RFU PIWIL2 (11732686_x_at) / Fold change /veh PIWIL2 (11732686_x_at) / RFU ORM1 (11744905_x_at) / Fold change /veh ORM1 (11744905_x_at) / RFU CCDC152 (11743942_at) / Fold change /veh CCDC152 (11743942_at) / RFU ECM1 (11717891_a_at) / Fold change /veh ECM1 (11717891_a_at) / RFU IL23R (11748794_a_at) / Fold change /veh IL23R (11748794_a_at) / RFU TNFAIP8L3 (11732012_x_at) / Fold change /veh TNFAIP8L3 (11732012_x_at) / RFU MBOAT4 (11741988_at) / Fold change /veh MBOAT4 (11741988_at) / RFU 11764193_at / Fold change /veh 11764193_at / RFU TMEM53 (11763286_at) / Fold change /veh TMEM53 (11763286_at) / RFU MAGEB2 (11727129_at) / Fold change /veh MAGEB2 (11727129_at) / RFU TMEM200A (11744735_a_at) / Fold change /veh TMEM200A (11744735_a_at) / RFU CCDC152 (11751479_a_at) / Fold change /veh CCDC152 (11751479_a_at) / RFU FAM211A (11726209_a_at) / Fold change /veh FAM211A (11726209_a_at) / RFU RGS16 (11746705_a_at) / Fold change /veh RGS16 (11746705_a_at) / RFU VCAN (11755009_s_at) / Fold change /veh VCAN (11755009_s_at) / RFU RHOB (11743442_s_at) / Fold change /veh RHOB (11743442_s_at) / RFU RGS16 (11720943_a_at) / Fold change /veh RGS16 (11720943_a_at) / RFU RGS16 (11720944_at) / Fold change /veh RGS16 (11720944_at) / RFU, VPS4B / Fold change vs veh, VPS4B / RFU, CREB1 / Fold change vs veh, CREB1 / RFU, DNAJC13 / Fold change vs veh, DNAJC13 / RFU, GNAQ / Fold change vs veh, GNAQ / RFU, CDK5R1 / Fold change vs veh, CDK5R1 / RFU, ZRANB3 / Fold change vs veh, ZRANB3 / RFU, CUL4A / Fold change vs veh, CUL4A / RFU, CCNY / Fold change vs veh, CCNY / RFU, UFL1 / Fold change vs veh, UFL1 / RFU, COG3 / Fold change vs veh, COG3 / RFU, DIAPH2 / Fold change vs veh, DIAPH2 / RFU, SKA2 / Fold change vs veh, SKA2 / RFU, AFF3 / Fold change vs veh, AFF3 / RFU, LMF1 / Fold change vs veh, LMF1 / RFU, IPO11 / Fold change vs veh, IPO11 / RFU, DFFB / Fold change vs veh, DFFB / RFU, FOXP1 / Fold change vs veh, FOXP1 / RFU, CARD8 / Fold change vs veh, CARD8 / RFU, STRN3 / Fold change vs veh, STRN3 / RFU, ADK / Fold change vs veh, ADK / RFU, RASSF2 / Fold change vs veh, RASSF2 / RFU, WIPF1 / Fold change vs veh, WIPF1 / RFU, LARP1B / Fold change vs veh, LARP1B / RFU, RASA1 / Fold change vs veh, RASA1 / RFU, RB1 / Fold change vs veh, RB1 / RFU, PPFIA1 / Fold change vs veh, PPFIA1 / RFU, MAT2A / Fold change vs veh, MAT2A / RFU, CCT5 / Fold change vs veh, CCT5 / RFU, WDR92 / Fold change vs veh, WDR92 / RFU, CUX1 / Fold change vs veh, CUX1 / RFU, TTC7A / Fold change vs veh, TTC7A / RFU, TMEM135 / Fold change vs veh, TMEM135 / RFU, DEPTOR / Fold change vs veh, DEPTOR / RFU, CPM / Fold change vs veh, CPM / RFU, DNAJB6 / Fold change vs veh, DNAJB6 / RFU, CACNA2D3 / Fold change vs veh, CACNA2D3 / RFU, DTX4 / Fold change vs veh, DTX4 / RFU, TFCP2 / Fold change vs veh, TFCP2 / RFU, GMCL1 /// GMCL1P1 / Fold change vs veh, GMCL1 /// GMCL1P1 / RFU, AEBP2 / Fold change vs veh, AEBP2 / RFU, SNHG1 /// SNORD22 /// SNORD25 /// SNORD26 /// SNORD27 /// SNORD28 /// SNORD29 /// SNORD31 / Fold change vs veh, SNHG1 /// SNORD22 /// SNORD25 /// SNORD26 /// SNORD27 /// SNORD28 /// SNORD29 /// SNORD31 / Fold change (Aza/veh), C12orf56 (ProbeSet 11735607_a_at) / Fold change (ACY-1035/veh), C12orf56 (ProbeSet 11735607_a_at) / Fold change (Aza/veh), FGFR1OP (ProbeSet 11751329_s_at) / Fold change (ACY-1035/veh), FGFR1OP (ProbeSet 11751329_s_at) / Fold change (Aza/veh), VPS36 (ProbeSet 11739960_a_at) / Fold change (ACY-1035/veh), VPS36 (ProbeSet 11739960_a_at) / RFU SYPL1 (11715823_x_at) / Fold change /veh SYPL1 (11715823_x_at) / RFU IGFBP7 (11715501_s_at) / Fold change /veh IGFBP7 (11715501_s_at) / RFU REEP3 (11722064_at) / Fold change /veh REEP3 (11722064_at) / RFU IGLL1 (11728026_x_at) / Fold change /veh IGLL1 (11728026_x_at): dose or concentration left out as unconfirmed
Details: MV-4-11 cells, 48 hours

SMILES: Nc1ccc(-c2cccs2)cc1NC(=O)c1ccc2c(c1)cc(C1CC1)n2CCN1CCOCC1 [ACY-1035]
- Fold change /veh TPSAB1 /// TPSB2 (11721975_s_at): 0.95
